Test results as given in patent US20230322789A1, “PYRAZOLOPYRIDAZINONE COMPOUND, AND PHARMACEUTICAL COMPOSITION AND USE THEREOF” (BroadenBio Co., Ltd., priority 2020, published 2023).
Structures can show the parent of a compound that is named as a salt.

Tests used:
HPK1 = HPK1 (Homo sapiens (Human), UniProt Q92918); assay: HPK1 kinase activity inhibition test (ADP-Glo, luminescence); format: biochemical; conditions: HPK1 5 nM, ATP 2 μM, read-out: IC50, inhibitory effects of compounds on HPK1 kinase activity
Sequence of HPK1 (Q92918 whole entry): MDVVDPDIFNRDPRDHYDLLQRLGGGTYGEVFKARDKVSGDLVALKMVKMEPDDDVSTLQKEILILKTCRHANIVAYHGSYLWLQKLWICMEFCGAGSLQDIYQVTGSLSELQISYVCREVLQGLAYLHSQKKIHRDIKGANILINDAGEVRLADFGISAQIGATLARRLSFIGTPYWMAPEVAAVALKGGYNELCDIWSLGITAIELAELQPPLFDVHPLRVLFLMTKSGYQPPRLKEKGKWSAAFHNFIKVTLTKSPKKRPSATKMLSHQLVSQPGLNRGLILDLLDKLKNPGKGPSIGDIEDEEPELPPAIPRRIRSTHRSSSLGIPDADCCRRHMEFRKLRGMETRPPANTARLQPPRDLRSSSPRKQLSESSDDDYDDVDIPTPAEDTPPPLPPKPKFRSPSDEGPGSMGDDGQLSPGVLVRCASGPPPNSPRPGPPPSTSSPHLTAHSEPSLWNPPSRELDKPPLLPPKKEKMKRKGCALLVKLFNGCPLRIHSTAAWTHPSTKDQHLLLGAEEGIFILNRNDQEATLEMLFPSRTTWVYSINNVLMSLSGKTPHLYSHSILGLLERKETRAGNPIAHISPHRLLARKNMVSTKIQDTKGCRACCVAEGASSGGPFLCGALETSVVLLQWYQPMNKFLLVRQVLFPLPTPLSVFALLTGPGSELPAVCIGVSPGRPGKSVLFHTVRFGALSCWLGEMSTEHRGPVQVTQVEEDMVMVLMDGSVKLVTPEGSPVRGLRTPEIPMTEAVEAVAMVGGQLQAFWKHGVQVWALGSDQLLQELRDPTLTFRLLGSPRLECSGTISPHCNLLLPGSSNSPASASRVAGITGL
Summary of the method: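 HPK1 autophosphorylation was run without added substrate. Kinase and compound were preincubated 10 min at 25° C., then ATP was added for 60 min at 25° C. ADP formed was detected by ADP-Glo luminescence, and IC50 was taken from a four-parameter nonlinear fit.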

Human Jurkat-E6-1 cells = assay: Measurement of IL-2 secretion of Jurkat cells by ELISA; format: cell-based; conditions: Homo sapiens, Jurkat E6.1, anti-CD3/anti-CD28 stimulation 24 hours, read-out: Percentage of the amount of IL-2 secreted from compound treated/DMSO-treated cells; for activity at 1 µM: test compound 1.0 μM; for activity at 3 µM: test compound 3.0 μM
Procedure: 2. Measurement of IL-2 Secretion of Jurkat Cells by ELISA
Human Jurkat-E6-1 cells were incubated with various concentrations of test compounds for 30 minutes in a humidified incubator at 37° C. and […]. Cells were transferred to cell culture plates pre-coated with anti-human CD3 antibody, then soluble anti-human CD28 antibody was added, and cells were stimulated for 24 hours at 37° C. and 5% CO2 in a humidified incubator. The cell culture medium was collected by centrifugation, and was then transferred to a 96-well transparent microtiter plate (Thermo) pre-coated with anti-human IL-2 antibody, incubated at room temperature for 2 hours, and gently shaken, washed with washing buffer for 4 times, and then followed the ELISA MAX Deluxe Set Human IL-2 (BioLegend) kit procedure, used a microplate reader (Molecular Device, i3X) to read the GD value. The best standard curve was selected by the microplate reader application software, and the corresponding concentration was calculated according to the GD value of the standard. Results are expressed as a percentage of the amount of IL-2 secreted from compound-treated/DMSO-treated cells.

Row | SMILES | IC50 (HPK1) [nM] | activity at 1 µM (Human Jurkat-E6-1 cells) [%] | activity at 3 µM (Human Jurkat-E6-1 cells) [%]
1 | CN1CCN(c2ccc(-c3n[nH]c4cc(=O)n(-c5ccccc5Cl)nc34)cc2)CC1 [Compound 7, 5-(2-chlorophenyl)-3-(4-(4-methylpiperazin-1-yl)phenyl)-1H-pyrazolo[4,3-c]pyridazin-6(5H)-one] | 50 to 500 | 314 | –
2 | Cc1ccccc1-n1nc2c(-c3ccc(N4CCN(C)CC4)cc3)n[nH]c2cc1=O [Compound 5, 5-(2-methylphenyl)-3-(4-(4-methylpiperazin-1-yl)phenyl)-1H-pyrazolo[4,3-c]pyridazin-6(5H)-one] | 50 to 500 | 162 | –
3 | Cc1cc(Cl)cc(F)c1-n1nc2c(-c3ccc(N4CCN(C)CC4)nc3)n[nH]c2cc1=O [Compound 108] | 50 to 500 | – | 312
4 | Cc1cccc(F)c1-n1nc2c(-c3ccc(N4CCC(N5CCOCC5)CC4)cc3)n[nH]c2cc1=O [Compound 142, 5-(2-fluoro-6-methylphenyl)-3-(4-(4-morpholinopiperidin-1-yl)phenyl)-1H-pyrazolo[4,3-c]pyridazin-6(5H)-one] | ≤ 50 | – | 708
5 | COc1ccncc1-n1nc2c(-c3ccc(C4=CCN(C)CC4)cc3)n[nH]c2cc1=O [Compound 151, 5-(4-methoxypyrid-3-yl)-3-(4-(1-methyl-1,2,3,6-tetrahydropyridin-4-yl)phenyl)-1H-pyrazolo[4,3-c]pyridazin-6(5H)-one] | 50 to 500 | – | 230
6 | Cc1cc(C#N)cc(F)c1-n1nc2c(-c3ccc4c(c3)CNCC4)n[nH]c2cc1=O [Compound 171, 3-fluoro-5-methyl-4-(3-(1,2,3,4-tetrahydroisoquinolin-7-yl)-6-oxo-1H-pyrazolo[4,3-c]pyridazin-5(6H)-yl)benzonitrile] | 50 to 500 | – | 220
7 | COc1cccc(C)c1-n1nc2c(-c3ccc(N4CCN(C)CC4)cc3)n[nH]c2cc1=O [Compound 2, 5-(2-methoxy-6-methylphenyl)-3-(4-(4-methylpiperazin-1-yl)phenyl)-1H-pyrazolo[4,3-c]pyridazin-6(5H)-one] | 50 to 500 | – | 238
8 | Cc1cccc(F)c1-n1nc2c(-c3ccc4c(c3)CN3C(=O)OC[C@@H]3C4)n[nH]c2cc1=O [Compound 177, (S)-7-(5-(2-fluoro-6-methylphenyl)-6-oxo-5,6-dihydro-1H-pyrazolo[4,3-c]pyridazin-3-yl)-10,10a-dihydro-1H-oxazolo[3,4-b]isoquinolin-3(5H)-one] | ≤ 50 | – | 481
9 | Cc1cccc(F)c1-n1nc2c(-c3ccc(N4CCN(CCO)CC4)nc3)n[nH]c2cc1=O [Compound 118, 5-(2-fluoro-6-methylphenyl)-3-(6-(4-(2-hydroxyethyl)piperazin-1-yl)pyrid-3-yl)-1H-pyrazolo[4,3-c]pyridazin-6(5H)-one] | ≤ 50 | – | 550
10 | Cc1cccc(F)c1-n1nc2c(-c3ccc(N4CCN(C)C(C(C)(C)O)C4)cc3)n[nH]c2cc1=O (centres unmarked) [Compound 125, 5-(2-fluoro-6-methylphenyl)-3-(4-(3-(2-hydroxylprop-2-yl)-4-methylpiperazin-1-yl)phenyl)-1H-pyrazolo[4,3-c]pyridazin-6(5H)-one] | ≤ 50 | – | 216
11 | Cc1cc(C#N)cc(F)c1-n1nc2c(-c3ccc(N4CCN(C)CC4)cc3)n[nH]c2cc1=O [Compound 42, 3-fluoro-5-methyl-4-(3-(4-(4-methylpiperazin-1-yl)phenyl)-6-oxo-1H-pyrazolo[4,3-c]pyridazin-5(6H)-yl)benzonitrile] | ≤ 50 | – | 365
12 | COCCN1CCN(c2ccc(-c3n[nH]c4cc(=O)n(-c5c(C)cccc5F)nc34)cn2)CC1 [Compound 119, 5-(2-fluoro-6-methylphenyl)-3-(6-(4-(2-methoxyethyl)piperazin-1-yl)pyrid-3-yl)-1H-pyrazolo[4,3-c]pyridazin-6(5H)-one] | ≤ 50 | – | 531
13 | CN1CCN(c2ccc(-c3n[nH]c4cc(=O)n(-c5c(O)cccc5F)nc34)cn2)CC1 [Compound 100, 5-(2-fluoro-6-hydroxylphenyl)-3-(6-(4-methylpiperazin-1-yl)pyrid-3-yl)-1H-pyrazolo[4,3-c]pyridazin-6(5H)-one hydrobromide] | 50 to 500 | – | 284
14 | Cc1cccc(F)c1-n1nc2c(-c3ccc(N4CCN(C5COC5)CC4)nc3)n[nH]c2cc1=O [Compound 103] | ≤ 50 | – | 716

Continued, in another order:

Row | IC50 (HPK1) [nM] | SMILES | activity at 1 µM (Human Jurkat-E6-1 cells) [%] | activity at 3 µM (Human Jurkat-E6-1 cells) [%]
15 | ≤ 50 | COc1cccc(F)c1-n1nc2c(-c3cnc(N4CCN(C)CC4)nc3)n[nH]c2cc1=O [Compound 28, 5-(2-fluoro-6-methoxyphenyl)-3-(2-(4-methylpiperazin-1-yl)pyrimidin-5-yl)-1H-pyrazolo[4,3-c]pyridazin-6(5H)-one] | 302 | –
16 | ≤ 50 | COc1cccc(F)c1-n1nc2c(-c3ccc(N4CCC(N5CCOCC5)CC4)cc3)n[nH]c2cc1=O [Compound 144, 5-(2-fluoro-6-methoxyphenyl)-3-(4-(4-morpholinopiperidin-1-yl)phenyl)-1H-pyrazolo[4,3-c]pyridazin-6(5H)-one] | – | 716
17 | ≤ 50 | COc1cccc(F)c1-n1nc2c(-c3ccc(N4CCN5CCOC[C@@H]5C4)cc3)n[nH]c2cc1=O [Compound 135, (S)-5-(2-fluoro-6-methoxyphenyl)-3-(4-(hexahydropyrazino[2,1-c][1,4]oxazin-8(1H)-yl)phenyl)-1H-pyrazolo[4,3-c]pyridazin-6(5H)-one] | – | 964
18 | ≤ 50 | CN1CCN(c2ccc(-c3n[nH]c4cc(=O)n(-c5c(F)cccc5Cl)nc34)cn2)CC1 [Compound 107] | – | 599
19 | ≤ 50 | Cc1cc(C#N)cc(F)c1-n1nc2c(-c3ccc(N4CCN(C5CCOC5)CC4)cc3)n[nH]c2cc1=O (centres unmarked) [Compound 85, 3-fluoro-5-methyl-4-(6-oxo-3-(4-(4-(tetrahydrofuran-3-yl)piperazin-1-yl)phenyl)-1H-pyrazolo[4,3-c]pyridazin-5(6H)-yl)benzonitrile] | – | 239
20 | ≤ 50 | COc1cc(C#N)cc(F)c1-n1nc2c(-c3ccc4c(c3)CN(C)CC4)n[nH]c2cc1=O [Compound 159, 3-fluoro-5-methoxy-4-(3-(2-methyl-1,2,3,4-tetrahydroisoquinolin-7-yl)-6-oxo-1H-pyrazolo[4,3-c]pyridazin-5(6H)-yl)benzonitrile] | – | 454
21 | ≤ 50 | COc1cc(C#N)cc(F)c1-n1nc2c(-c3ccc(N4CCN5C(=O)OCC5C4)cc3)n[nH]c2cc1=O (centres unmarked) [Compound 124, 3-fluoro-5-methoxy-4-(6-oxo-3-(4-(3-oxotetrahydro-1H-oxazolo[3,4-a]pyrazin-7(3H)-yl)phenyl)-1H-pyrazolo[4,3-c]pyridazin-5(6H)-yl)benzonitrile] | – | 570
22 | ≤ 50 | COc1cccc(F)c1-n1nc2c(-c3ccc(N4CCN(C)CC4)cc3)n[nH]c2cc1=O [Compound 9, 5-(2-fluoro-6-methoxyphenyl)-3-(4-(4-methylpiperazin-1-yl)phenyl)-1H-pyrazolo[4,3-c]pyridazin-6(5H)-one] | – | 188
23 | ≤ 50 | CN1CCN(c2ccc(-c3n[nH]c4cc(=O)n(-c5c(F)cccc5C5CC5)nc34)cc2)CC1 [Compound 34, 5-(2-fluoro-6-cyclopropylphenyl)-3-(4-(4-methylpiperazin-1-yl)phenyl)-1H-pyrazolo[4,3-c]pyridazin-6(5H)-one] | 284 | –
24 | ≤ 50 | Cc1cccc(F)c1-n1nc2c(-c3ccc(N4CCC(O)CC4)cc3)n[nH]c2cc1=O [Compound 138, 5-(2-fluoro-6-methylphenyl)-3-(4-(4-hydroxylpiperidin-1-yl)phenyl)-1H-pyrazolo[4,3-c]pyridazin-6(5H)-one] | – | 873
25 | ≤ 50 | COc1cc(C(=O)N(C)C)cc(F)c1-n1nc2c(-c3ccc(N4CCN(C)CC4)cc3)n[nH]c2cc1=O [Compound 80, 3-fluoro-5-methoxy-N,N-dimethyl-4-(3-(4-(4-methylpiperazin-1-yl)phenyl)-6-oxo-1H-pyrazolo[4,3-c]pyridazin-5(6H)-yl)benzamide] | – | 191
26 | ≤ 50 | Cc1cc(C#N)cc(F)c1-n1nc2c(-c3ccc(N4CCN(C(=O)C(C)O)CC4)cc3)n[nH]c2cc1=O (centres unmarked) [Compound 83] | – | 252
27 | ≤ 50 | COc1cccc(F)c1-n1nc2c(-c3ccc(N4CCN(C)C(CO)C4)cc3)n[nH]c2cc1=O (centres unmarked) [Compound 121, 5-(2-fluoro-6-methoxyphenyl)-3-(4-(3-(hydroxymethyl)-4-methylpiperazin-1-yl)phenyl)-1H-pyrazolo[4,3-c]pyridazin-6(5H)-one] | – | 459
28 | ≤ 50 | [2H]C([2H])([2H])N1CCN(c2ccc(-c3n[nH]c4cc(=O)n(-c5c(C)cccc5F)nc34)cc2)CC1 [Compound 81, 5-(2-fluoro-6-methylphenyl)-3-(4-(4-(methyl-d3)piperazin-1-yl)phenyl)-1H-pyrazolo[4,3-c]pyridazin-6(5H)-one] | – | 679
